Results reported in the supplement of paper PMC10883282.

Experiments:
Assay in all cases: relative viability vs DMSO control (72 h) (fraction); higher = more viable cells
[1] = system: SW872
Outline: (§1)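 After seeding at densities set for 80–90% confluence in 384-well plates, sarcoma cell lines waited 24 h before 2.5 µl of serially diluted compound was added. Source plates held 10 mM down to 0.0002 mM. Plates were incubated 72 h at 37 °C with 5% CO2, with 0.1% DMSO vehicle and a 5 µM positive control, and relative viability was taken from ATPLite as percent growth averaged over up to triplicate wells, with 1 set as full and 0 as none.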

[2] = system: KHOS-240S
Outline: as §1

[3] = system: SK-LMS-1
Outline: as §1

[4] = system: SW1353
Outline: as §1

[5] = system: RD-ES
Outline: as §1

[6] = system: HT1080
Outline: as §1

[7] = system: RD
Outline: as §1

[8] = system: SYO-1
Outline: as §1

[9] = system: G401
Outline: as §1

[10] = system: HS729
Outline: as §1

[11] = system: SW684
Outline: as §1

[12] = system: KHOS-NP
Outline: as §1

O=C1CCc2c(Oc3ccc4c(c3)[C@@H]3[C@H](O4)[C@H]3c3nc4cc(C(F)(F)F)ccc4[nH]3)ccnc2N1 [Lifirafenib]
Details	relative viability
[1], 0.00017 µM	0.974
[1], 0.00051 µM	0.998
[1], 0.00152 µM	1.01
[1], 0.00457 µM	1.03
[1], 0.01372 µM	1.03
[1], 0.04115 µM	0.98
[1], 0.1235 µM	0.941
[1], 0.3704 µM	0.735
[1], 1.111 µM	0.644
[1], 3.333 µM	0.644
[1], 10 µM	0.59
[2], 0.00017 µM	1.068
[2], 0.00051 µM	1.07
[2], 0.00152 µM	1.06
[2], 0.00457 µM	1.08
[2], 0.01372 µM	1.06
[2], 0.04115 µM	1.06
[2], 0.1235 µM	1.06
[2], 0.3704 µM	1.03
[2], 1.111 µM	0.967
[2], 3.333 µM	0.792
[2], 10 µM	0.547
[3], 0.00017 µM	1.04
[3], 0.00051 µM	1.06
[3], 0.00152 µM	1.09
[3], 0.00457 µM	1.08
[3], 0.01372 µM	1.1
[3], 0.04115 µM	1.11
[3], 0.1235 µM	1.14
[3], 0.3704 µM	1.1
[3], 1.111 µM	0.876
[3], 3.333 µM	0.6129
[3], 10 µM	0.438
[4], 0.00017 µM	0.989
[4], 0.00051 µM	0.95
[4], 0.00152 µM	0.989
[4], 0.00457 µM	1.01
[4], 0.01372 µM	1.06
[4], 0.04115 µM	1.06
[4], 0.1235 µM	1.06
[4], 0.3704 µM	1.08
[4], 1.111 µM	1.03
[4], 3.333 µM	0.861
[4], 10 µM	0.545
[5], 0.00017 µM	0.9742
[5], 0.00051 µM	0.997
[5], 0.00152 µM	0.98
[5], 0.00457 µM	0.991
[5], 0.01372 µM	1
[5], 0.04115 µM	0.981
[5], 0.1235 µM	0.992
[5], 0.3704 µM	1.04
[5], 1.111 µM	1.02
[5], 3.333 µM	0.954
[5], 10 µM	0.822
[6], 0.00017 µM	1.09
[6], 0.00051 µM	1.05
[6], 0.00152 µM	1.046
[6], 0.00457 µM	1.08
[6], 0.01372 µM	1.07
[6], 0.04115 µM	1.11
[6], 0.1235 µM	1.09
[6], 0.3704 µM	1.09
[6], 1.111 µM	1.04
[6], 3.333 µM	0.9439
[6], 10 µM	0.491
[7], 0.00017 µM	1.08
[7], 0.00051 µM	1.1
[7], 0.00152 µM	1.09
[7], 0.00457 µM	1.13
[7], 0.01372 µM	1.11
[7], 0.04115 µM	1.13
[7], 0.1235 µM	1.11
[7], 0.3704 µM	1.039
[7], 1.111 µM	0.947
[7], 3.333 µM	0.787
[7], 10 µM	0.5251
[8], 0.00017 µM	0.947
[8], 0.00051 µM	0.941
[8], 0.00152 µM	0.9369
[8], 0.00457 µM	0.947
[8], 0.01372 µM	0.937
[8], 0.04115 µM	0.91
[8], 0.1235 µM	0.905
[8], 0.3704 µM	0.823
[8], 1.111 µM	0.666
[8], 3.333 µM	0.555
[8], 10 µM	0.437
[9], 0.00017 µM	1.02
[9], 0.00051 µM	1.03
[9], 0.00152 µM	1.03
[9], 0.00457 µM	1.02
[9], 0.01372 µM	1.02
[9], 0.04115 µM	1.03
[9], 0.1235 µM	1.035
[9], 0.3704 µM	1.01
[9], 1.111 µM	0.957
[9], 3.333 µM	0.787
[9], 10 µM	0.625
[10], 0.00017 µM	0.947
[10], 0.00051 µM	0.921
[10], 0.00152 µM	0.926
[10], 0.00457 µM	0.937
[10], 0.01372 µM	0.886
[10], 0.04115 µM	0.907
[10], 0.1235 µM	0.871
[10], 0.3704 µM	0.852
[10], 1.111 µM	0.8769
[10], 3.333 µM	0.851
[10], 10 µM	0.817
[11], 0.00017 µM	1.17
[11], 0.00051 µM	1.2
[11], 0.00152 µM	1.18
[11], 0.00457 µM	1.16
[11], 0.01372 µM	1.15
[11], 0.04115 µM	1.15
[11], 0.1235 µM	1.154
[11], 0.3704 µM	1.22
[11], 1.111 µM	1.32
[11], 3.333 µM	1.3
[11], 10 µM	0.936
[12], 0.00017 µM	1.07
[12], 0.00051 µM	1.07
[12], 0.00152 µM	1.07
[12], 0.00457 µM	1.07
[12], 0.01372 µM	1.064
[12], 0.04115 µM	1.05
[12], 0.1235 µM	1.06
[12], 0.3704 µM	1.07
[12], 1.111 µM	0.8425
[12], 3.333 µM	0.433
[12], 10 µM	0.321
